From patent US20050222251A1, “Dual inhibition of cyclooxygenase-2 and carbonic anhydrase” (AMOREPACIFIC CORPORATION, priority 2004, published 2005)
pIC50: −log10 of the molar value. Where two headings read alike, the source gives them in different places.

Experiments:
[1] = Plasma protein binding, filtration method, HPLC; format: in vitro ADME; conditions: male, SD; pooled rat plasma at 1 μg/ml
Experimental: Plasma Protein Binding of Compound: Plasma protein binding was determined for a compound of Formula I by a filtration method. An aliquot of a compound stock solution in DMSO was added to a designated volume of freshly prepared pooled plasma from male SD rats. The plasma solution was then subjected to filtration using a centrifuge filter (Amicon YM-30) at 4000 g for 30 min. The filtrate was analyzed by HPLC to determine the concentration of the compound.

[2] = Partitioning between plasma and erythrocytes, 14C-labeled compound; format: in vitro ADME
Experimental: Alternatively, partitioning between plasma and erythrocytes was determined by using a ^14C-labeled compound of Formula I and whole blood withdrawn as heparinized. Scintillation counting was used for analysis in place of HPLC.

Human CA II [3] = target: T1, Human CA II (Homo sapiens, UniProt P00918); test: Inhibition assay for CA (Method A), CA II; format: biochemical; conditions: CO2 hydration, phenol red
T1 construct: purchased Sigma C-4936
Experimental: (§1) Compounds of Formula I were assessed for their inhibitory activities against human CAs according to methods described in a literature and a prior art. […] Details of the employed assay methods (Method A and Method B) for the inhibition of CAs are provided in the section of “MATERIALS AND METHODS” of this invention. Provided below are some of compounds of Formula I assayed for the inhibition of CAs. [drawing 6] [drawing 7] [drawing 8]
(§2) DMSO and buffer agents were obtained from Sigma. Distilled water was prepared in-house by distilling deionized water.
(§3) Inhibition Assay for CA (Method A): CA inhibitory activities by COX-2 inhibitors of this invention were assessed by a previously reported method. […] Then the interval was measured from the initiation of the reaction to the point of the color change of the solution from purple to yellow. During the entire reaction, the reaction solution was kept bubbled with CO2.

[4] = Repeat dose toxicity study in rats; format: in vivo, rat
[5] = system: adjuvant-induced arthritis; conditions: male Lewis rats, oral, bid; cited from earlier work
Human CA I [6] = target: T2, Human CA I (Homo sapiens, UniProt P00915); test: Inhibition assay for CA (Method A), CA I; format: biochemical; conditions: CO2 hydration, phenol red
T2 construct: purchased Sigma C-6165
Experimental: as §1, §2, §3

[7] = Pharmacokinetic studies in rats; format: in vivo; conditions: rat, plasma
Experimental: Pharmacokinetic Studies in Rats: An appropriate amount of a compound suspended in 1% aqueous methylcelluose solution was administered to male SD rats by oral gavage. Blood samples were collected from the retro-orbital sinus at designated time points over 0 to 24 hours post dose. Plasma was separated from each withdrawn blood sample by centrifugation and the plasma sample was stored at 4° C. until HPLC analysis for the quantification of the compound. The plasma samples were analyzed by reverse phase HPLC using an appropriate internal standard and a pre-established calibration curve.

[8] = Repeat dose toxicity study in monkeys
Experimental: Toxicokinetic studies were performed with treatment groups in monkeys. Satellite toxicokinetic groups were used for the toxicokinetic studies of treatment groups in rats. Animals at terminal sacrifice were evaluated for histopathological findings in the GI tract and other organs.

[9] = Plasma protein binding, filtration method, 14C-labeled compound; format: in vitro ADME; conditions: Sprague-Dawley (SD), rat, broad range of concentrations
Experimental: Alternatively, plasma protein binding was determined by a filtration method employing a ^14C-labeled compound of Formula I. Scintillation counting was used for analysis in place of HPLC.

Human CA II [10] = target: T1, Human CA II; test: Inhibition assay for CA (Method B, esterase activity), CA II; format: biochemical; conditions: p-nitrophenylacetate hydrolysis, pH 7.6
Experimental: as §1, §2
(§4) The employed method is briefly described as follows. An aqueous reaction mixture consisting of 2 Wilbur-Anderson units of CA, 4 mM p-nitrophenylacetate, 5% DMSO, 0.1 M Na2SO4, and 50 mM Tris-HCl buffer at pH 7.6 was prepared to contain a designated amount of inhibitor. The esterase activity of CA (the hydrolysis of p-nitrophenylacetate) was followed by the increases in absorbance at 405 nm using an ELISA reader at room temperature. The initial rate (slope of the initial absorbance data) data from the absorbance data were used to calculate % inhibition of CA at a designated concentration of inhibitor according to equation (7). % Inhibition=[1−(Initial Rate with Inhibitor)/(Initial Rate without Inhibitor)]×100 (7)

[11] = system: carrageenan-induced thermal hyperalgesia; conditions: male SD rats, orally administered; cited from earlier work
Human CA I [12] = target: T2, Human CA I; test: Inhibition assay for CA (Method B, esterase activity), CA I; format: biochemical; conditions: p-nitrophenylacetate hydrolysis, pH 7.6
Experimental: as §1, §2, §4

[13] = cited from earlier work; for primary target sites of the GI adverse events: repeated oral administrations
[14] = cited from earlier work
intraocular pressure = conditions: oral administration, hypertensive rabbits; cited from earlier work
[15] = human whole blood, FDA pharmacology review; cited from earlier work
[16] = FDA pharmacology review; valdecoxib in human whole blood; cited from earlier work
[17] = repeated oral administrations for 4 weeks

T2 sequence (P00915 whole entry): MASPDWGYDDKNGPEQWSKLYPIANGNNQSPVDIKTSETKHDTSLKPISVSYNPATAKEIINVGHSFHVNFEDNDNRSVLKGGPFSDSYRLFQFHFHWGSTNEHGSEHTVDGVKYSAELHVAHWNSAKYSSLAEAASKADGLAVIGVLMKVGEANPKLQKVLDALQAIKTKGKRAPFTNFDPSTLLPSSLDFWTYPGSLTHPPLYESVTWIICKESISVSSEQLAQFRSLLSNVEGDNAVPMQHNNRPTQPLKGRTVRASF

In the case of CC1(C)OC(c2ccc(S(N)(=O)=O)cc2)=C(c2cccc(F)c2)C1=O [Example 1, 5-{4-(aminosulfonyl)phenyl}-2,2-dimethyl-4-(3-fluorophenyl)-3(2H)furanone], the fraction unbound at 1 μg/ml [1] was less than 0.01, the “distribution to erythrocytes over plasma” value [2] was “even more preferentially distribute to erythrocytes over plasma” and the pIC50 (Human CA II [3]) was 6.10. The “primary target site of the intestinal adverse findings” value [4] was “caecum”, the “dose limiting adverse effects” value ([4]; oral, up to 4 weeks) was “Intestinal adverse effects (primarily in the caecum)” and the “daily systemic exposure without positive histopathological findings in the stomach” value [4, 17] was ~30,000 hr×ng/ml. For the same compound, the “histopathological findings in the stomach” value ([4]; repeated oral administrations for 4 weeks, daily systemic exposure of ca 30,000 hr×ng/ml) was “no positive histopathological findings in the stomach”, the “ED50 by adjuvant-induced arthritis” value [5] was 0.1 mg/kg/day and the pIC50 (Human CA I [6]) was 5.52. For the same compound, the Cmax ([7]; male, SD, oral, 0.05 mg/kg, 82 ng/ml divided by 20, read-out: Cmax calculated for 0.1 mg/kg/day, bid (0.05 mg/kg)) was 4.1 ng/mL, the Cmax ([7]; oral 1 mg/kg, male SD rats, read-out: plasma Cmax) was 82 ng/mL and the “histopathological findings in the stomach” value ([8]; 4 weeks, one out of 18 subjects) was “one case of focal mucosal degeneration in the stomach”. The “daily systemic exposure of the subject with the histopathological finding in the stomach” value ([8]; final day of the treatment) was > 20,000 hr×ng/ml, the “histopathological findings in the intestines” value [8, 17] was “not associated with positive histopathological findings in the intestines” and the fraction unbound [9] was roughly 0.1. For the same compound, the pIC50 (Human CA II [10]) was 7.20, the “ED50 in carrageenan-induced thermal hyperalgesia” value [11] was 0.25 mg/kg and the pIC50 (Human CA I [12]) was 6.54.
CC1(C)OC(c2ccc(S(N)(=O)=O)cc2)=C(c2cc(F)ccc2F)C1=O [Example 2, 5-{4-(aminosulfonyl)phenyl}-4-(2,5-difluorophenyl)-2,2-dimethyl-3(2H)furanone] showed a pIC50 (Human CA II [3]) of 6.13 and a pIC50 (Human CA I [6]) of 5.49.
CC1(C)OC(c2ccc(S(N)(=O)=O)c(F)c2)=C(c2cccc(F)c2)C1=O [Example 4, 5-{4-(aminosulfonyl)-3-fluorophenyl}-2,2-dimethyl-4-(3-fluorophenyl)-3(2H)furanone] gave a pIC50 (Human CA II [3]) of 6.35, a pIC50 (Human CA I [6]) of 5.77 and a pIC50 (Human CA II [10]) of 7.57. For the same compound, the pIC50 (Human CA I [12]) was 6.68.
CC1(C)OC(c2ccc(S(N)(=O)=O)c(F)c2)=C(c2cc(F)ccc2F)C1=O [Example 5, 5-{4-(aminosulfonyl)-3-fluorophenyl}-4-(2,5-difluorophenyl)-2,2-dimethyl-3(2H)furanone] showed a pIC50 (Human CA II [3]) of 6.32, a pIC50 (Human CA I [6]) of 5.89 and a pIC50 (Human CA II [10]) of 7.85. It also gave a pIC50 (Human CA I [12]) of 6.62.
CC1(C)OC(c2ccc(S(N)(=O)=O)c(F)c2)=C(c2ccc(F)c(F)c2)C1=O [Example 6, 5-{4-(aminosulfonyl)-3-fluorophenyl}-4-(3,4-difluorophenyl)-2,2-dimethyl-3(2H)furanone] gave a pIC50 (Human CA II [3]) of 6.04 and a pIC50 (Human CA I [6]) of 5.30.
Compound CC1(C)OC(c2ccc(S(N)(=O)=O)c(F)c2)=C(c2cc(F)cc(F)c2)C1=O [Example 7, 5-{4-(aminosulfonyl)-3-fluorophenyl}-4-(3,5-difluorophenyl)-2,2-dimethyl-3(2H)furanone] has a pIC50 (Human CA II [3]) of 6.20 and a pIC50 (Human CA I [6]) of 5.47.
With CC1(C)OC(c2ccc(S(N)(=O)=O)cc2F)=C(c2ccc(F)cc2)C1=O [Example 8, 5-{4-(aminosulfonyl)-2-fluorophenyl}-2,2-dimethyl-4-(4-fluorophenyl)-3(2H)furanone] the pIC50 (Human CA II [3]) was 6.38 and the pIC50 (Human CA I [6]) was 5.72.
With CC1(C)OC(c2ccc(S(N)(=O)=O)cc2F)=C(c2cc(F)cc(F)c2)C1=O [Example 9, 5-{4-(aminosulfonyl)-2-fluorophenyl}-4-(3,5-difluorophenyl)-2,2-dimethyl-3(2H)furanone] the pIC50 (Human CA II [3]) was 6.20 and the pIC50 (Human CA I [6]) was 5.33.
Work on Cc1cc(C2=C(c3cccc(F)c3)C(=O)C(C)(C)O2)ccc1S(N)(=O)=O [Example 10, 5-{4-(aminosulfonyl)-3-methylphenyl}-2,2-dimethyl-4-(3-fluorophenyl)-3(2H)furanone] yielded a pIC50 (Human CA II [3]) of 5.27 and a pIC50 (Human CA I [6]) of 5.04.
For Cc1cnc(NC(=O)C2=C(O)c3ccccc3S(=O)(=O)N2C)s1 [Meloxicam], the “primary target sites of the GI adverse events” value (“primary target sites” for short) ([13]; rats) is listed as “duodenum”.
In the case of Cc1ccc(-c2cc(C(F)(F)F)nn2-c2ccc(S(N)(=O)=O)cc2)cc1 [celecoxib], the gastric toxicity ([13]; rat, in vivo) is listed as “not associated with gastric toxicity”, the “primary target sites” value ([13]; rats) is listed as “jejunum and ileum” and the thromboembolic events ([14]; 400 mg/day and 800 mg/day, long term cancer prevention trial (APC)) is listed as “increases in the thromboembolic events”.
In the case of O=C(O)Cc1ccccc1Nc1c(Cl)cccc1Cl [diclofenac], the “effect on intraocular pressure” value (intraocular pressure) is given as “failed to reduce the intraocular pressure”.
In the case of COc1ccc2c(c1)c(CC(=O)O)c(C)n2C(=O)c1ccc(Cl)cc1 [indomethacin, reference compound], the “ED50 by adjuvant-induced arthritis” value [5] is given as 0.3 mg/kg/day and the “ED50 in carrageenan-induced thermal hyperalgesia” value [11] is given as roughly 1.0 mg/kg.
For CS(=O)(=O)c1ccc(C2=C(c3ccccc3)C(=O)OC2)cc1 [rofecoxib], the “distribution ratio erythrocytes over plasma” value [15] is listed as “no noticeable preferential distribution”, the gastric toxicity ([13]; rats, doses where the intestinal toxicity began to come out) is listed as “not associated with gastric toxicity” and the “primary target sites” value ([13]; rats) is listed as “jejunum and ileum”. For the same compound, the thromboembolic cardiovascular events ([14]; 25 mg/day, long term cancer prevention trial (APPROVe)) was “increased risk of thromboembolic cardiovascular events” and the plasma protein binding [16] was 87%.
For Cc1onc(-c2ccccc2)c1-c1ccc(S(N)(=O)=O)cc1 [valdecoxib], the gastric toxicity ([13]; rat, in vivo) is listed as “not associated with gastric toxicity”, the thromboembolic events ([14]; acute use, coronary artery bypass graft patients) is listed as “increase in the thromboembolic events” and the plasma protein binding [16] is listed as 98%. For the same compound, the “effect on intraocular pressure” value (intraocular pressure) was “reduced intraocular pressure”.
